Reference: ChEMBL document CHEMBL1127315, “Substituted O6-benzylguanine derivatives and their inactivation of human O6-alkylguanine-DNA alkyltransferase” (J Med Chem, 1994)
Activity calls are given as the source filed them. No cut-off for these calls is given here.

Assays:
[1] = biological target: T1, Methylated-DNA--protein-cysteine methyltransferase (Homo sapiens) (UniProt P16455); conditions: HT-29
T1 sequence (whole entry): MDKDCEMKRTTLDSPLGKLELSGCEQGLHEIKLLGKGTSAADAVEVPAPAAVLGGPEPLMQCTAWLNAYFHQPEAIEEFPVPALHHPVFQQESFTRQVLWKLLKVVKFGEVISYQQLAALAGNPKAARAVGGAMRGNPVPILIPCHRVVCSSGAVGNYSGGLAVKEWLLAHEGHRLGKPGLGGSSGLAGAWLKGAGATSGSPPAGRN

[2] = biological target: T1, Methylated-DNA--protein-cysteine methyltransferase (Homo sapiens); conditions: HT-29; remark: listed apart in the source
[3] = biological target: T1, Methylated-DNA--protein-cysteine methyltransferase (Homo sapiens); assay: Tested for the effective dose required to produce 50 percent inactivation of O6-alkylguanine-DNA alkyltransferase in HT-29 cell free extract; Inactive

Compound	ED50 [1] [nM]	ED50 [2] [nM]	ED50 [3]
C[C@]12CC[C@H]3[C@@H](CCC4CC(=O)CC[C@@]43C)[C@@H]1CC[C@@H]2OC(=O)Cn1cnc2c(OCc3ccccc3)nc(N)nc21 (stereo not given in full)	4000	500	
CC12CCC(=O)C=C1CCC1C2CCC2(C)C(OC(=O)Cn3cnc4c(OCc5ccccc5)nc(N)nc43)CCC12 (stereo not given)	5000	500	
Nc1nc(Oc2ccccc2)c2[nH]cnc2n1			inactive
